In patent US20130136722A1, “Methods of Ex Vivo Expansion of Blood Progenitor Cells, and Generation of Composite Grafts” (The Board of Trustees of The University of Illinois, priority 2011, published 2013):

Tested on: LTB4
Experiment: LTB4 in conditioned media by AChE competitive ELISA
Assay type: cell-based, human
Details: day 9 of expansion culture; FIG. 4E
Protocol: The concentration of LTB4 in conditioned media was measured by an acetylcholine esterase competitive enzyme immunoassay following the manufacturer's instructions (Cayman Chemical Co. Ann Arbor, Mich.). Absorbance at 405 nm was read using ELx 800, instrument (Bio Tek Instruments Inc.). Results were calculated using mean values of triplicate wells with standard errors (SE).

CCCC(CCC)C(=O)O [VPA, valproic acid]
level of leukotriene B4 (LTB4) in conditioned medium: increased compared to control
